Test results published in US6528494B2 (priority 1996, dated 2003).
Structures can show the parent of a compound that is named as a salt.

Assays:
Type in all cases: cell-based
[1] = target: T1, adenosine 1 receptor (Homo sapiens, UniProt P30542); assay: Agonist activity against adenosine 1 receptor (CHO cells, forskolin-enhanced cAMP/SPAP reporter); details: CHO cells transfected with human receptor; forskolin-enhanced cAMP via SPAP; mean of all the versions tested
T1 sequence (P30542 1-326): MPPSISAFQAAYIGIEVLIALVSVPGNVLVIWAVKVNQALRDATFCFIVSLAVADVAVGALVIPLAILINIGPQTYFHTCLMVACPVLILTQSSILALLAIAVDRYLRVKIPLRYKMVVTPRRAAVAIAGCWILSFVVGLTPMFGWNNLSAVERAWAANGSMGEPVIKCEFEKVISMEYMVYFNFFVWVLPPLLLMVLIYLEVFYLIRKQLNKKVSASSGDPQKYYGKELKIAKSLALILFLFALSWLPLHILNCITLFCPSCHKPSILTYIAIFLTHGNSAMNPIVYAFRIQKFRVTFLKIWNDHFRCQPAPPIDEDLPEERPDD
Method: (§1) (1) Agonist activity against adenosine 2a, adenosine 1 and adenosine 3 receptor subtypes.
(§2) The effect of test compounds was determined by their effects on basal levels of cAMP (A2a) or on forskolin-enhanced cAMP (A1 and A3) as reflected by changes in levels of SPAP.

[2] = target: adenosine 2a receptor (Homo sapiens, UniProt P29274); assay: Agonist activity against adenosine 2a receptor (CHO cells, cAMP/SPAP reporter); details: CHO cells transfected with human receptor; basal cAMP via SPAP; mean of all the versions tested
Chain of adenosine 2a receptor (P29274 whole entry): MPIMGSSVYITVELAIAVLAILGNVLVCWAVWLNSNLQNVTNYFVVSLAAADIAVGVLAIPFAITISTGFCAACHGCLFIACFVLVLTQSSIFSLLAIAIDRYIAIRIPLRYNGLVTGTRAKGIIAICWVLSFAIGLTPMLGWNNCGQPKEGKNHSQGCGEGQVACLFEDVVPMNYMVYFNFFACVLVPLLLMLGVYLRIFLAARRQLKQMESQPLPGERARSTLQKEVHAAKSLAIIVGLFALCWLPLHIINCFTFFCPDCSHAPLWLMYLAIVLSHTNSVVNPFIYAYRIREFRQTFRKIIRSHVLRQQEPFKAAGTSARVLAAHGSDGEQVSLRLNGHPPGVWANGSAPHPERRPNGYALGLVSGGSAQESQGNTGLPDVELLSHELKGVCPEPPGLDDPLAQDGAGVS
Method: as §1, §2

[3] = target: T2, adenosine 3 receptor (Homo sapiens, UniProt P0DMS8); assay: Agonist activity against adenosine 3 receptor (CHO cells, forskolin-enhanced cAMP/SPAP reporter); details: CHO cells transfected with human receptor; forskolin-enhanced cAMP via SPAP; mean of all the versions tested
T2 sequence (P0DMS8 1-318): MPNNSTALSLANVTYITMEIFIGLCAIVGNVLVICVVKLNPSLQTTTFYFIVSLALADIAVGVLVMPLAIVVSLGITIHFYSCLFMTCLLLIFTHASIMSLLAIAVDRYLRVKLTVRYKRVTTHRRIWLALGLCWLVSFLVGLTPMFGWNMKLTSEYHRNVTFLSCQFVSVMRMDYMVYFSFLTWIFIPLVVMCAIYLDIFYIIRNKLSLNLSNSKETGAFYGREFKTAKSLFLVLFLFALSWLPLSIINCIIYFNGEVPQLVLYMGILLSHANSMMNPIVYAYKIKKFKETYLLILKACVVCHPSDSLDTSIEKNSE
Method: as §1, §2

| Molecule | A1 EC50 as a ratio of that of NECA [1] | A2a EC50 as a ratio of that of NECA [2] | A3 EC50 as a ratio of that of NECA [3] |
| --- | --- | --- | --- |
| Cn1nnc([C@H]2O[C@@H](n3cnc4c(NCC(c5ccccc5)c5ccccc5)nc(N[C@@H]5CCC[C@H]5O)nc43)[C@H](O)[C@@H]2O)n1.O=CO [Example 96, (2R,3R,4S,5R)-2-[6-(2,2-Diphenyl-ethylamino)-2-(2R-hydroxy-(R)-cyclopentylamino)-purin-9-yl]-5-(2-methyl-2H-tetrazol-5-yl)-tetrahydro-furan-3,4-diol Formate] | 5177.00 | 2.14 | >153 |
| CCn1nnc([C@H]2O[C@@H](n3cnc4c(N)nc(NCc5ccccc5CO)nc43)[C@H](O)[C@@H]2O)n1.O=C(O)C(F)(F)F [Example 86, (2R,3R,4S,5R)-2-[6-Amino-2-(2-hydroxymethyl-benzylamino)-purin-9-yl]-5-(2-ethyl-2H-tetrazol-5-yl)-tetrahydro-furan-3,4-diol Trifluoroacetate] | 16.90 | 2.16 | >179 |
| CCn1nnc([C@H]2O[C@@H](n3cnc4c(N)nc(NCCc5ccc(OC)c(OC)c5)nc43)[C@H](O)[C@@H]2O)n1.O=C(O)C(F)(F)F [Example 20, (2R,3R,4S,5R)-2-{6-Amino-2-[2-(3,4-dimethoxy-phenyl)-ethylamino]-purin-9-yl}-5-(2-ethyl-2H-tetrazol-5-yl)-tetrahydro-furan-3,4-diol Trifluoroacetate] | 253 | 0.14 | >183 |
| (2R,3R,4S,5R)-2-[2-(1-Benzyl-pyrrolidin-3-ylamino)-6-cyclopentylamino-purin-9-yl]-5-(2-ethyl-2H-tetrazol-5-yl)-tetrahydro-furan-3,4-diol bis(Formate) [Example 66] | 48.60 | 1.53 | >158 |
| CCn1nnc([C@H]2O[C@@H](n3cnc4c(NCC(c5ccccc5)c5ccccc5)nc(NC5CCOCC5)nc43)[C@H](O)[C@@H]2O)n1.O=C(O)C(F)(F)F [Example 113, (2R, 3R,4S, 5R)-2-[6-(2,2-Diphenyl-ethylamino)-2-(tetrahydro-pyran-4-ylamino)-purin-9-yl]-5-(2-ethyl-2H-tetrazol-5-yl)-tetrahydro-furan-3,4-diol Trifluoroacetate] | 184.4 | 0.72 | >297.0 |
| Cn1cnc(CCNc2nc(NCCC(C)(C)C)c3ncn([C@@H]4O[C@H](c5nnn(C)n5)[C@@H](O)[C@H]4O)c3n2)c1.O=CO [Example 28, (2R,3R,4S,5R)-2-{6-(3,3-Dimethyl-butylamino)-2-[2-(1-methyl-1H-imidazol-4-yl)-ethylamino]-purin-9-yl}-5-(2-methyl-2H-tetrazol-5-yl)-tetrahydro-furan-3,4-diol Formate] | >=1250 | 0.36 | >151 |
| CCn1nnc([C@H]2O[C@@H](n3cnc4c(N)nc(NC5CC6CCC5C6)nc43)[C@H](O)[C@@H]2O)n1.O=C(O)C(F)(F)F (stereo partly drawn) [Example 19, (2R,3R,4S,5R)-2-[6-Amino-2-(bicyclo[2.2.1]hept-2-ylamino)-purin-9-yl]-5-(2-ethyl-2H-tetrazol-5-yl)-tetrahydro-furan-3,4-diol Trifluoroacetate] | 85.6 | 0.21 | >382 |

The next lines start with the values.

| A1 EC50 as a ratio of that of NECA [1] | A2a EC50 as a ratio of that of NECA [2] | A3 EC50 as a ratio of that of NECA [3] | Molecule |
| --- | --- | --- | --- |
| 247.6 | 0.69 | >346 | CCn1nnc(C2OC(n3cnc4c(N)nc(NCCc5ccc(S(N)(=O)=O)cc5)nc43)C(O)C2O)n1 (stereo not drawn) [Example 17, 4-(2-{6-Amino-9-[5R-(2-ethyl-2H-tetrazol-5-yl)-3R,4S-Dihydroxy-tetrahydro-furan-2R-yl]-9H-purin-2-ylamino}-ethyl)-benzenesulfonamide Formate] |
| 119.1 | 0.52 | >348 | Cn1nnc(C2OC(n3cnc4c(N)nc(NC(CO)Cc5ccccc5)nc43)C(O)C2O)n1 [Example 37, (2R,3R,4S,5R)-2-[6-Amino-2-(1S-hydroxymethyl-2-phenyl-ethylamino)-purin-9-yl]-5-(2-methyl-2H-tetrazol-5-yl)-tetrahydro-furan-3,4-diol Formate] |
| 1413.00 | 2.34 | >240 | Cn1nnc(C2OC(n3cnc4c(NCC(c5ccccc5)c5ccccc5)nc(NCCc5ccccn5)nc43)C(O)C2O)n1.O=CO.O=CO (stereo not drawn) [Example 97] |
| 30.55 | 7.24 | >405 | CCC(CC)Nc1nc(NCCN2CCOCC2)nc2c1ncn2C1OC(c2nnn(C(C)C)n2)C(O)C1O.O=CO.O=CO [Example 70, (2R,3R,4S,5R)-2-[6-(1-Ethyl-propylamino)-2-(2-morpholin-4-yl-ethylamino)-purin-9-yl]-5-(2-isopropyl-2H-tetrazol-5-yl)-tetrahydro-furan-3,4-diol Diformate] |
| 230.8 | 0.84 | >116 | CCn1nnc([C@H]2O[C@@H](n3cnc4c(NCc5cccc(I)c5)nc(NCCc5cn(C)cn5)nc43)[C@H](O)[C@@H]2O)n1 [Example 3, (2R,3S,4R,5R)-2-(2-Ethyl-2H-tetrazol-5-yl)-5-{6-(3-iodo-benzylamino)-2-[2-(1-methyl-1H-imidazol-4-yl)-ethylamino]-purin-9-yl}-tetrahydro-furan-3,4-diol] |
| 818.40 | 5.75 | >171 | CCn1nnc(C2OC(n3cnc4c(NCCC5CCCCC5)nc(NC5CCNC5)nc43)C(O)C2O)n1 [Example 73, (2R,3R,4S,5R)-2-[6-(2-Cyclohexyl-ethylamino)-2-(pyrrolidin-3S-ylamino)-purin-9-yl]-5-(2-ethyl-2H-tetrazol-5-yl)-tetrahydro-furan-3,4-diol bis(Formate)] |
| 348.11 | 1.61 | >320 | CCC(CC)Nc1nc(NC2CCC(N)CC2)nc2c1ncn2C1OC(c2nnn(C)n2)C(O)C1O.O=CO.O=CO [Example 87, (2R,3R,4S,5R)-2-[2-(trans-4-Amino-cyclohexylamino)-6-(1-ethyl-propylamino)-purin-9-yl]-5-(2-methyl-2H-tetrazol-5-yl)-tetrahydro-furan-3,4-diol Diformate] |
| 321.00 | 6.36 | >195 | CCn1nnc(C2OC(n3cnc4c(NCCc5ccccc5)nc(NCCN5CCCCC5)nc43)C(O)C2O)n1.O=CO.O=CO [Example 102, (2R,3S,4R,5R)-2-(2-Ethyl-2H-tetrazol-5-yl)-5-[6-phenethylamino-2-(2-piperidin-1-yl-ethylamino)-purin-9-yl]-tetrahydro-furan-3,4-diol Diformate] |
| 323.00 | 9.20 | >150 | CCn1nnc(C2OC(n3cnc4c(NCc5ccccc5)nc(NC(CO)Cc5ccccc5)nc43)C(O)C2O)n1 [Example 61, (2R,3R,4S,5R)-2-[6-Benzylamino-2-(1S-hydroxymethyl-2-phenyl-ethylamino)-purin-9-yl]-5-(2-ethyl-2H-tetrazol-5-yl)-tetrahydro-furan-3,4-diol Formate] |
| 73.85 | 2.96 | >326 | CCC(CC)Nc1nc(NC2CCC(N)CC2)nc2c1ncn2C1OC(c2nnn(C(C)C)n2)C(O)C1O.O=CO.O=CO [Example 67, (2R,3R,4S,5R)-2-[2-(trans-4-Amino-cyclohexylamino)-6-(1-ethyl-propylamino)-purin-9-yl]-5-(2-isopropyl-2H-tetrazol-5-yl)-tetrahydro-furan-3,4-diol bis(Formate)] |
| 205.4 | 0.149 | >244 | CCn1nnc([C@H]2O[C@@H](n3cnc4c(NCCc5ccccc5)nc(NCCc5cn(C)cn5)nc43)[C@H](O)[C@@H]2O)n1.Cl.Cl [Example 4, (2R,3S,4R,5R)-2-(2-Ethyl-2H-tetrazol-5-yl)-5-{2-[2-(1-methyl-1H-imidazol-4-yl)-ethylamino]-6-phenethylamino-purin-9-yl}-tetrahydro-furan-3,4-diol Dihydrochloride] |
